# Experimental data taken from patent publication US5948754A, “Cyclic hexapeptides, their production and use” (Takeda Chemical Industries, Ltd., priority 1993, dated 1999).
# Where a SMILES comes first, the peptide text is derived from it. [ ]: non-standard residue; d: D form. The star is where a group is joined. Piperazinyl(4-(2-MeOPh)) = COc1ccccc1N1CCN(*)CC1; Piperazinyl(4-Ph) = c1ccc(N2CCN(*)CC2)cc1; dGly(2-thienyl) = N[C@@H](C(=O)O)c1cccs1; d(tBuAla) = CC(C)(C)C[C@@H](N)C(=O)O
# Columns and labels:
# [1] = test system: porcine coronary vein ring preparations constricted with sarafotoxin S6c; assay: Determination of porcine coronary vein relaxation activity; settings: peptide at 0.01 μM; vein constricted with S6c 1 nM for 45 min; relative to constriction of S6c (100%)
# Protocol: Determination of porcine coronary vein relaxation activity
# Ring preparations of porcine coronary vein (3 mm in a diameter) were placed in an organ bath filled with Krebs solution gassed with 95% O2 /5%CO2 at 37° C. and allowed to stand for 1.5 h at a resting load of 0.5 g tension for vein. The preparations were constricted with 60 mM KCl for 15 min and then washed and allowed to stand for 1.5 h at the resting load. The vein preparations constricted with sarafotoxin S6c (S6c) at 1 nM for 45 min were used to determine the effect of the peptide of Example 4 at 0.01 μM. Result is shown in the following Table as the relaxation rate relative to the constriction of S6c (100%).
# [2] = biological target: T1, endothelin A (ETA) receptors (Sus scrofa, UniProt Q29010); assay: Determination of ETA receptor binding activity ([125I]ET-1, swine ventricular muscle membrane fraction); settings: [125I]ET-1 binding, 25° C., 1 hour
# T1 construct: A membrane fraction prepared from swine ventricular muscle; from tissue; host or cells: swine ventricular muscle membrane fraction
# T1 sequence (Q29010 21-427): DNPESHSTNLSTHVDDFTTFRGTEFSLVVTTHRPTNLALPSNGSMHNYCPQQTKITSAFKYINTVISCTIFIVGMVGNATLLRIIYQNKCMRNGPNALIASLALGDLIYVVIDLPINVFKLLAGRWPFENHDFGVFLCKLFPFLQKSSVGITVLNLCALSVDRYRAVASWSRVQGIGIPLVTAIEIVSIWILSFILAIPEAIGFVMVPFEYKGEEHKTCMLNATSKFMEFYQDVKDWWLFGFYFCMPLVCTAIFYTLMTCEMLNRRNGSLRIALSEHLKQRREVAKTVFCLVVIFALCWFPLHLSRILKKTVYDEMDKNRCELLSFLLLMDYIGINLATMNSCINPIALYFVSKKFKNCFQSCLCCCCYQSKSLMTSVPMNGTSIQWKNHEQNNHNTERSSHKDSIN
# Protocol: Determination of endothelin receptor binding activity (1) Determination of ETA receptor binding activity
# A membrane fraction prepared from swine ventricular muscle was diluted to 12 μg/ml with an assaying buffer and dispensed to assaying tubes at 100 μl per tube. To this membrane fraction suspension were added 2 μl of a solution of endothelin-l labeled with 100 pmole of radioactive iodine ([^125 I]ET-1, produced by Amersham Medical Ltd.) and 3 μl of a solution of the subject compound at various concentrations, followed by incubation at 25° C. for 1 hour. The suspension was then diluted with an ice-cooled assaying buffer and filtered through a glass filter GF/F (produced by Whatman K.K.). The membrane fraction containing endothelin A (ETA) receptors and receptor-bound [^125 I)ET-1 were recovered on the filter. The radioactivity retained on the filter was measured to obtain the amount of [^125 I]ET-1 bound to the ETA receptors. The amount of [^125 I,]ET-1 bound in the presence of ET-1 in great excess as the test compound was taken as the amount of nonspecific binding. The amount of specific binding (SPB) of [^125 I]ET-1 was obtained by subtracting the amount of nonspecific binding from the total amount of binding determined. The percent SPB value at test compound concentration C (molar concentration by volume) was defined as the percent ratio of the amount of specific binding relative to the amount of specific binding obtained at a test compound concentration of 0. The thus-obtained value was substituted for the following "pseudo-Hill's equation" to calculate the test compound concentration (IC50 value) required to have a value of 50% for the amount of specific binding of [125I]ET-1.
# (§1) log[%SPB/(100 - %SPB)]=n[logC - log(IC50)]
# (§2) n: Pseudo-Hill's coefficient
# [3] = biological target: T2, endothelin B (ETB) receptors (Bos taurus, UniProt P28088); assay: Determination of ETB receptor binding activity ([125I]ET-1, bovine brain membrane fraction); settings: [125I]ET-1 binding, 25° C., 1 hour
# T2 construct: A membrane fraction prepared from a bovine brain; from tissue; host or cells: bovine brain membrane fraction
# T2 sequence (P28088 27-441): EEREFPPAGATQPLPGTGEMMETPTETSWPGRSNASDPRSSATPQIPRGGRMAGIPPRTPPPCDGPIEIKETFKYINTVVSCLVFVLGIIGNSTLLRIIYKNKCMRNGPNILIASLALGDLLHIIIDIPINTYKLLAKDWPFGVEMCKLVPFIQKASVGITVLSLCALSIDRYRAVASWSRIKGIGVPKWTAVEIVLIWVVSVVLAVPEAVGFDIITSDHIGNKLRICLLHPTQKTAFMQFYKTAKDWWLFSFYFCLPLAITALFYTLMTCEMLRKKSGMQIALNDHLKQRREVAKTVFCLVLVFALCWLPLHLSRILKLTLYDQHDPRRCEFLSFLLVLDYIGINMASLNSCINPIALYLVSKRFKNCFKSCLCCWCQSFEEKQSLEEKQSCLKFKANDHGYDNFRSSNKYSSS
# Protocol: (2) Determination of ETB receptor binding activity
# A membrane fraction prepared from a bovine brain was diluted to 150 μg/ml with an assaying buffer and dispensed to assaying tubes at 100 μl per tube. To this membrane fraction suspension were added 2 μl of a solution of endothelin-1 labeled with 100 pM of radioactive iodine ([^125 I]ET-1, produced by Amersham Medical Ltd.) and 3 μl of a solution of the subject compound at various concentrations, followed by incubation at 25° C. for 1 hour. The suspension was then diluted with an ice-cooled assaying buffer and filtered through a glass filter GF/F (produced by Whatman K.K.). The membrane fraction containing endothelin B (ETB) receptors and receptor-bound [^125 I)ET-1 were recovered on the filter. The radioactivity retained on the filter was measured to obtain the amount of (^125 I]ET-1 bound to the ETB receptors. The amount of (^125 I]ET-1 bound in the presence of ET-1 in great excess as the test compound was taken as the amount of nonspecific binding. The amount of specific binding (SPB) of [^125 I]ET-1 was obtained by subtracting the amount of nonspecific binding from the total amount of binding determined. The percent SPB value at test compound concentration C (molar concentration by volume) was defined as the percent ratio of the amount of specific binding relative to the amount of specific binding obtained at a test compound concentration of 0. The thus-obtained value was substituted for the following "pseudo-Hill's equation" to calculate the test compound concentration (IC50 value) required to have a value of 50% for the amount of specific binding of [^125 I]ET-1.
# as §1, §2
Compound,relaxation rate (%) [1] [%],IC50 [2] [nM],IC50 [3] [nM]
cyclo[--D--Asp--Asp(B7)--Asp--D--γMeLeu--Leu--D--Trp--].2Na [Example 4],66,,
"CC(C)C[C@@H]1NC(=O)[C@@H](c2cccs2)NC(=O)[C@H](CC(=O)O)NC(=O)[C@H](CC(=O)N2CCN(c3ccccc3)CC2)NC(=O)[C@@H](CC(=O)O)NC(=O)[C@@H](Cc2c[nH]c3ccccc23)NC1=O [Reference Example 1, cyclo(--D--Asp--L--Asp(B1)--L--Asp--D--Thg(2)--L--Leu--D--Trp--), reference compound] (cyclo(D(Piperazinyl(4-Ph))D[dGly(2-thienyl)]L[dW][dD]))",,0.08,120
"COc1ccccc1N1CCN(C(=O)C[C@@H]2NC(=O)[C@@H](CC(=O)O)NC(=O)[C@@H](Cc3cn(C(C)=O)c4ccccc34)NC(=O)[C@H](CC(C)C)NC(=O)[C@@H](CC(C)(C)C)NC(=O)[C@H](CC(=O)O)NC2=O)CC1 [Example 3, cyclo(--D--Asp--L--Asp(B7)--L--Asp--D--γMeLeu--L--Leu--D--Trp(Ac)--)] (cyclo(D(Piperazinyl(4-(2-MeOPh)))D[d(tBuAla)]L[dW](Ac)[dD]))",,0.49,14
"CC(C)C[C@@H]1NC(=O)[C@@H](CC(C)(C)C)NC(=O)[C@H](CC(=O)O)NC(=O)[C@H](CC(=O)N2CCN(c3ccccc3)CC2)NC(=O)[C@@H](CC(=O)O)NC(=O)[C@@H](Cc2c[nH]c3ccccc23)NC1=O [Example 2, cyclo(--D--Asp--L--Asp(B1)--L--Asp--D--γMeLeu--L--Leu--D--Trp--)] (cyclo(D(Piperazinyl(4-Ph))D[d(tBuAla)]L[dW][dD]))",,0.18,28
"COc1ccccc1N1CCN(C(=O)C[C@@H]2NC(=O)[C@@H](CC(=O)O)NC(=O)[C@@H](Cc3c[nH]c4ccccc34)NC(=O)[C@H](CC(C)C)NC(=O)[C@@H](CC(C)(C)C)NC(=O)[C@H](CC(=O)O)NC2=O)CC1 [Example 1, cyclo[--D--Asp--Asp(B7)--Asp--D--γMeLeu--L--Leu--D--Trp--]] (cyclo(D(Piperazinyl(4-(2-MeOPh)))D[d(tBuAla)]L[dW][dD]))",,0.18,11
